Conditions: sheep, in vivo, 7 days
Excerpt: In another embodiment, the present disclosure provides a composition that achieves both immediate and extended release of an active pharmaceutical ingredient (API) upon administration to a subject, the composition comprising chitosan particles and API, the release occurring through at least one of diffusion of API from the particles and breakdown of the particles to release entrapped API. In additional embodiments, the present disclosure provides a composition that achieves both immediate and extended release of an API which is characterized by any one or more of the following exemplary features: the chitosan particles comprise crosslinked chitosan; the API is an NSAID; the API is diclofenac which optionally may be in whole or in part in crystalline form; the immediate release occurs over a period of 12 hours from the administration, and releases from 5 to 70% of API from the particles; the extended release occurs over a period of 0.5 to 7 days from administration, and releases 5 to 70% of the API from the particles; the particles are taken up by the synovium after administration to the subject. […] Accordingly, the incorporation of API into a crosslinked chitosan particle as disclosed herein may provide an extended release of API into the synovial fluid.

Which “synovial fluid concentration of diclofenac” value does the source give for `O=C(O)Cc1ccccc1Nc1c(Cl)cccc1Cl` [diclofenac, 2-(2-(2,6-dichlorophenylamino)phenyl)acetic acid] here?
Its value is “about 0.05 mg/mL”.

Reference: patent US20180000737A1, “INJECTABLE AGGREGATES FOR JOINT AND SOFT TISSUE DISTRESS” (VISGO THERAPEUTICS, INC., priority 2015, published 2018)
